Reference: paper PMC12372887, “Mechanism and cellular actions of the potent AMPK inhibitor BAY-3827” (Science Advances, 2025)
“And” between values parts separate entries of the source, which are not always exact repeats. Equal values may be shown once.

Legend:
[1] = system: AMPKα1α2+/+ (control) primary hepatocytes; test: RNA-seq transcriptome analysis of primary hepatocytes; format: cell-based, mouse
Experimental: Primary hepatocytes were pretreated for 15 min with BAY-3827 5 μM at 37°C in MEM-199 supplemented with penicillin G (100 U/ml), streptomycin ([…]), and 100 nM dexamethasone followed by addition of MK-8722 10 μM treatment. Six hours posttreatment, the cells were washed twice with room-temperature PBS. RNA was isolated using QIAwave RNAeasy kit (catalog no. 74104) with on-column deoxyribonuclease (DNAse) treatment using Qiagen RNase-free DNase set (catalog no. 79256) following the manufacturer’s protocol. Messenger RNA-seq was performed by the Single-Cell Omics platform at the Novo Nordisk Foundation Center for Basic Metabolic Research. Libraries were prepared using the Universal Plus mRNA-seq protocol (Tecan) as recommended by the manufacturer. Libraries were quantified with NuQuant using the CLARIOstar Plate Reader (BMG Labtech), quality checked using a TapeStation instrument (Agilent Technologies), and subjected to 52–base pair paired-end sequencing on a NovaSeq 6000 (Illumina). The sequencing analysis pipeline nf-core ([69]) was used, with alignment and quantification selection of STAR and Salmon, and mouse GRCm38 set as the reference genome. Unique molecular identifier (UMI)-based deduplication was performed using UMI tools, and sorting and index alignments were completed with SAMtools as part of the pipeline. Differential expression analysis was carried out using the R package edgeR ([70]) and a batch-effect removal was performed in limma ([71]) to account for the variability induced by two mice (291 + 295) from which cells with the same treatments had been pooled to obtain the required cell confluence. Venn diagrams were produced using the R package ggvenn ([72]). […] Heatmaps of log2 counts per million normalized counts were produced using R package pheatmap ([73]). GO enrichment analysis was performed using the R package clusterProfiler version 4.6.2 ([74]) setting FDR < 0.05 with reference organism specified as mouse, pAdjustMethod was set to BH, and ontology category set to biological process, with a qvalueCutoff of 0.05. Visualization analyses were conducted in RStudio version 4.2.0 ([75]).

HEK293 cells = test: RSK signaling immunoblot in HEK293 cells; format: cell-based, human
Experimental: HEK293 cells (Invitrogen, R75007) were seeded at a density of 500,000 cells per well in six-well cell culture plates (Corning Incorporated Costar #3516) in Dulbecco’s modified Eagle medium (DMEM) high-glucose + GlutaMAX Supplement, pyruvate (Thermo Fisher Scientific, catalog no. 31966-021) containing penicillin G (100 U/ml), streptomycin (100 μg/ml), and 10% (v/v) FBS. Once attached, the next day, the media were changed to serum-free and the cells were starved for 16 hours followed by compound treatment with BAY-3827, BI-D1870 (MedChemExpress, #HY-10510) ± 10 μM MK-2206 dihydrochloride (MedChemExpress, #HY-10358) with 30 min incubation at 37°C followed by coincubation with […] (MedChemExpress, #HY-18739) or vehicle for additional 30 min with final assay DMSO concentration of 0.13%. All cell lines used here were tested monthly for mycoplasma and tested negative.
Following compound treatment, the cells were washed with room temperature PBS and lysed on ice with the addition of lysis buffer [50 mM tris-HCl (pH 7.5), 150 mM NaCl, 1 mM EDTA, 1 mM EGTA, 0.27 M sucrose, 1% w/v Triton X-100, 20 mM glycerol-2 phosphate disodium, 50 mM NaF, and 5 mM Na4P2O7.10 H2O] containing proteases and phosphatase inhibitors [0.5 mM phenylmethylsulfonyl fluoride (PMSF), 1 mM benzamidine HCl, leupeptin (1 μg/ml), pepstatin A (1 μg/ml), 1 μM microcystin-LR, 1 mM Na3VO4, and 1 mM DTT]. Lysates were centrifuged at 10,000g, 4°C for 10 min, and protein concentration of the supernatant was determined with the Pierce Bradford Protein Assay Kit (Thermo Fisher Scientific, #23200) and read on the Hidex Plate Reader (software version 0.5.64.0). Samples were prepared in Laemmli sample buffer (tris 200 mM, 8% SDS, EDTA 2 mM, and 40% glycerol) supplemented with 10% DTT and boiled for 5 min at 100°C. Ten micrograms of protein per sample was run on a Criterion tris-glycine polyacrylamide gel (Bio-Rad, #5678095) and transferred to a nitrocellulose membrane. For cell signaling experiments in HEK293 cells, the samples were run on a Criterion TGX stain-free precast gel (Bio-Rad, catalog no. 5678085) with transfer to a polyvinylidene difluoride membrane performed in Bio-Rad Criterion blotter (#1704071) using tris-glycine transfer buffer (Bio-Rad, #1610734) following the manufacturer’s instructions. The membranes were probed at 4°C overnight in a 4% BSA TBS-T solution containing 0.02% sodium azide with the following antibodies where appropriate: Phospho-ACC (Ser^79) (1:1000, Cell Signaling Technology, #3661S), ACC (C83B10) (1:1000, Cell Signaling Technology, #3676S), phospho-Raptor (Ser^792) (1:1000, Cell Signaling Technology, #2083S), Raptor (24C12) (1:1000, Cell Signaling Technology, #2280S), GSK3αβ (1:2000, Sigma-Aldrich, #04-903), phospho-GSK3αβ (Ser^21/9) (D17D2) (1:1000, Cell Signaling Technology, #8566S), ERK1/2 (137F5) (1:1000, Cell Signaling Technology, #4695), phospho-ERK1/2 (Thr^202/Tyr^204) (D13.14.4E) (1:1000, Cell Signaling Technology, #4370), phospho-AMPKα (Thr^172) (40H9) (1:1000, Cell Signaling Technology, #2535S), AMPKα (1:1000, Cell Signaling Technology, #2532S), anti–glyceraldehyde-3-phosphate dehydrogenase antibody (1:5000, Cell Signaling Technology, #G8795), and vinculin (1:1000, Cell Signaling Technology, #13901). Membranes were scanned using the Odyssey Fc LiCor system (exposure time, 30 s) with densitometry analysis performed using LiCor Image Studio Lite normalizing to control loading protein. Figures were made using GraphPad Prism v10.

CCc1ccccc1C(=O)Nc1n[nH]c2c(C)c(F)c(C3C(C#N)=C(C)N(C)C(C)=C3C#N)cc12 [BAY-3827, N-[5-(3,5-dicyano-1,2,6-trimethyl-4H-pyridin-4-yl)-6-fluoro-7-methyl-1H-indazol-3-yl]-2-ethylbenzamide]
LogFC ADORA2B ([1]; 5 μM + MK-8722 versus MK-8722): −1.3062 | LogFC AVPR1A ([1]; 5 μM + MK-8722 versus MK-8722): −1.708 | LogFC EHHADH ([1]; 5 μM + MK-8722 versus MK-8722): −1.5955 | LogFC HAL ([1]; 5 μM + MK-8722 versus MK-8722): −1.348 | LogFC HMGCR ([1]; 5 μM + MK-8722 versus MK-8722): −0.1621 | LogFC HPGD ([1]; 5 μM + MK-8722 versus MK-8722): −1.745 | LogFC LIPE ([1]; 5 μM + MK-8722 versus MK-8722): −0.2816 | LogFC LPIN2 ([1]; 5 μM + MK-8722 versus MK-8722): −0.5277 | LogFC PFKFB2 ([1]; 5 μM + MK-8722 versus MK-8722): −0.5421 | LogFC PLIN5 ([1]; 5 μM + MK-8722 versus MK-8722): −1.3 | LogFC SP1 ([1]; 5 μM + MK-8722 versus MK-8722): −0.4397 | LogFC TBC1D15 ([1]; 5 μM + MK-8722 versus MK-8722): −0.4895 | LogFC TBC1D17 ([1]; 5 μM + MK-8722 versus MK-8722): −0.5598 | MK-8722–stimulated AMPK-dependent genes down-regulated ([1]; 5 μM + MK-8722 versus MK-8722): ~ 30% and 30.1% | logFC CALCOCO1 (RSK2 gene) ([1]; 5 μM + MK-8722 versus MK-8722): -0.7893 | logFC CENPE (RSK1 gene) ([1]; 5 μM + MK-8722 versus MK-8722): -1.28 | logFC CENPI (RSK1 gene) ([1]; 5 μM + MK-8722 versus MK-8722): -0.6534 | logFC CENPW (RSK1 gene) ([1]; 5 μM + MK-8722 versus MK-8722): -0.4735 | logFC DSN1 (RSK1 gene) ([1]; 5 μM + MK-8722 versus MK-8722): -0.789 | logFC FN1 (RSK1 gene) ([1]; 5 μM + MK-8722 versus MK-8722): -0.2178 | logFC MASTL (RSK1 gene) ([1]; 5 μM + MK-8722 versus MK-8722): -0.8494 | logFC NEK2 (RSK1 gene) ([1]; 5 μM + MK-8722 versus MK-8722): -1.199 | logFC SPC25 (RSK1 gene) ([1]; 5 μM + MK-8722 versus MK-8722): -0.6826 | logFC STAT5B ([1]; 5 μM + MK-8722 versus MK-8722): -0.6006 | differentially expressed genes that are down-regulated ([1]; 5 μM + MK-8722 versus MK-8722, 2511 significant genes): 61.2% | PPARGC1A gene counts ([1]; 5 μM + MK-8722 versus MK-8722 alone): significantly reduced | PMA-stimulated pGSK3αβ (surrogate of RSK activity) (HEK293 cells; 10 μM, in the presence of MK-2206 (10 μM)): inhibited to the same extent | ACC1 phosphorylation (HEK293 cells; serum-starved HEK293, 1 and 10 μM): dose-dependent reduction
